One experiment concerns SYNJ2BP. The experiment is described as follows: holdup assay, SYNJ2BP PDZ domain. Conditions: biotinylated PBM-HBc peptide, in duplicates, BI > 0.2 significant. It counts as binding, human.
Another experiment deals with SIPA1L2. Description: holdup assay, SIPA1L2 PDZ domain. The experiment is classed as binding, human. Conditions: biotinylated PBM-HBc peptide, in duplicates, BI > 0.2 significant.
The subject of another experiment is DLG4_2_. The experiment is described as follows: holdup assay, DLG4_2_ PDZ domain. As to conditions: biotinylated PBM-HBc peptide, in duplicates, BI > 0.2 significant. The experiment is classed as binding, human.
A further experiment deals with DLG2_2. The experiment is described as follows: holdup assay, DLG2_2 PDZ domain. The experiment is classed as binding, human. As to conditions: biotinylated PBM-HBc peptide, in duplicates, BI > 0.2 significant.
A further experiment deals with DLG1_1. The experiment is described as follows: holdup assay, DLG1_1 PDZ domain. It counts as binding, human. As to conditions: biotinylated PBM-HBc peptide, in duplicates, BI > 0.2 significant.
In another experiment the test system is SNTA1. Description: holdup assay, SNTA1 PDZ domain. It counts as binding, human. Conditions: biotinylated PBM-HBc peptide, in duplicates, BI > 0.2 significant.
The next experiment deals with MAGI2. Description: holdup assay, MAGI2 PDZ domain. The experiment is classed as binding, human. As to conditions: biotinylated PBM-HBc peptide, in duplicates, BI > 0.2 significant.
In the next experiment the test system is DLG1_3. The experiment is described as follows: holdup assay, DLG1_3 PDZ domain. It counts as binding, human. As to conditions: biotinylated PBM-HBc peptide, in duplicates, BI > 0.2 significant.
A further experiment concerns SNTB1. The experiment is described as follows: holdup assay, SNTB1 PDZ domain. The experiment is classed as binding, human. As to conditions: biotinylated PBM-HBc peptide, in duplicates, BI > 0.2 significant.
The next experiment relates to GIPC2. Description: holdup assay, GIPC2 PDZ domain. As to conditions: biotinylated PBM-HBc peptide, in duplicates, BI > 0.2 significant. The experiment is classed as binding, human.
For another experiment, the system named is STXB4. Description: holdup assay, STXB4 PDZ domain. It counts as binding, human. Conditions: biotinylated PBM-HBc peptide, in duplicates, BI > 0.2 significant.
The next experiment has as its system DLG4_1. Description: holdup assay, DLG4_1 PDZ domain. It counts as binding, human. As to conditions: biotinylated PBM-HBc peptide, in duplicates, BI > 0.2 significant.
The subject of another experiment is SNTB2. Description: holdup assay, SNTB2 PDZ domain. The experiment is classed as binding, human. Conditions: biotinylated PBM-HBc peptide, in duplicates, BI > 0.2 significant.
For experiment [1], the system named is human PDZ domains (the PDZome). The experiment is described as follows: holdup assay, PDZome profile. The experiment is classed as binding. Conditions: holdup assay against human PDZome, threshold BI = 0.2.
The next experiment relates to GIPC1. Description: holdup assay, GIPC1 PDZ domain. It counts as binding, human. As to conditions: biotinylated PBM-HBc peptide, in duplicates, BI > 0.2 significant.
In another experiment the test system is PTPN4. The experiment is described as follows: holdup assay, PTPN4 PDZ domain. It counts as binding, human. As to conditions: biotinylated PBM-HBc peptide, in duplicates, BI > 0.2 significant.
A further experiment relates to MAST2. Description: holdup assay, MAST2 PDZ domain. It counts as binding, human. As to conditions: biotinylated PBM-HBc peptide, in duplicates, BI > 0.2 significant.
A further experiment has as its system MAGI1. Description: holdup assay, MAGI1 PDZ domain. It counts as binding, human. Conditions: biotinylated PBM-HBc peptide, in duplicates, BI > 0.2 significant.
For a further experiment, the system named is MAGI3. The experiment is described as follows: holdup assay, MAGI3 PDZ domain. Conditions: biotinylated PBM-HBc peptide, in duplicates, BI > 0.2 significant. The experiment is classed as binding, human.
Another experiment deals with SNX27. The experiment is described as follows: holdup assay, SNX27 PDZ domain. It counts as binding, human. As to conditions: biotinylated PBM-HBc peptide, in duplicates, BI > 0.2 significant.
For the next experiment, the system named is DLG2_1. Description: holdup assay, DLG2_1 PDZ domain. Conditions: biotinylated PBM-HBc peptide, in duplicates, BI > 0.2 significant. The experiment is classed as binding, human.
A further experiment concerns DLG3_2. The experiment is described as follows: holdup assay, DLG3_2 PDZ domain. The experiment is classed as binding, human. Conditions: biotinylated PBM-HBc peptide, in duplicates, BI > 0.2 significant.
For another experiment, the system named is InaDl. Description: holdup assay, InaDl PDZ domain. It counts as binding, human. As to conditions: biotinylated PBM-HBc peptide, in duplicates, BI > 0.2 significant.
In a further experiment the test system is DLG1_2. Description: holdup assay, DLG1_2 PDZ domain. The experiment is classed as binding, human. As to conditions: biotinylated PBM-HBc peptide, in duplicates, BI > 0.2 significant.
In another experiment the test system is DLG4_3. Description: holdup assay, DLG4_3 PDZ domain. It counts as binding, human. Conditions: biotinylated PBM-HBc peptide, in duplicates, BI > 0.2 significant.
A further experiment concerns SCRIB. Description: holdup assay, SCRIB PDZ domain. It counts as binding, human. As to conditions: biotinylated PBM-HBc peptide, in duplicates, BI > 0.2 significant.
The subject of the next experiment is MPDZ. The experiment is described as follows: holdup assay, MPDZ PDZ domain. It counts as binding, human. As to conditions: biotinylated PBM-HBc peptide, in duplicates, BI > 0.2 significant.
The subject of another experiment is TJP2. The experiment is described as follows: holdup assay, TJP2 PDZ domain. The experiment is classed as binding, human. Conditions: biotinylated PBM-HBc peptide, in duplicates, BI > 0.2 significant.
Experiment [2] has as its target PTPN3-PDZ. As to conditions: previously reported; cited from earlier work. The source says:
In the present study, we investigated the molecular mechanism of interaction between PTPN3 and HBc. […] We confirmed the interaction by NMR.

For experiment [3], the system named is PTPN3-PDZ. The experiment is described as follows: NMR binding of full-length HBc (CLPs) to PTPN3-PDZ. On the set-up: species or system human. As to conditions: 1H,15N HSQC-TROSY, 600 MHz, 20 °C, PTPN3-PDZ 95 μM, PDZ:HBc final ratio 1:19.4. The method, then: We then tested the complex formation between PTPN3-PDZ and the full-length HBc (Fig. 2c). ^1H, ^15N HSQC-TROSY spectra were recorded on ^15N-labeled PTPN3-PDZ in its free form (red signals in Fig. 2c) and in the presence of the unlabeled HBc full-length protein at different ratios. […] Indeed, wild type (WT) HBc proteins form homodimers and self-assemble into capsids, and the full-length HBc expressed in Escherichia coli mainly assembles into capsid-like particles (CLPs) of 3 to 5 million Da, as measured by analytical ultracentrifugation (AUC) (Fig. 2d). […] The molecular tumbling of PTPN3-PDZ is drastically slowed down when forming high molecular weight complexes with the CLPs, which induced the broadening of the linewidths of the PTPN3-PDZ signals beyond detection. Yet, the TROSY spectra of the complexes did contain a few peaks, which we attributed to regions of PTPN3-PDZ that remained mobile, probably the N-terminal and C-terminal extremities.
The NMR binding experiments between PTPN3-PDZ and full-length HBc as CLPs were performed at 20 °C on a 600-MHz BRUKER Avance III HD spectrometer equipped with a cryoprobe. […] A series of ^1H, ^15N HSQC-TROSY spectra was recorded for different titration points with a ratio PDZ:HBc (mol:mol) 1:0, 1:1.4, 1:5.6, and 1:19.4.

In a further experiment the test system is GST-PTPN3-PDZ. Description: GST pull-down assay with GST-PTPN3-PDZ. It counts as binding, human. As to conditions: lysate of HeLa S3 cells overexpressing HF-tagged HBc; anti-HA Western blot; GST alone as negative control. The method, then:
To investigate whether the PBM at the end of CTD of HBc is accessible to PTPN3 binding during capsid assembly, a glutathione S-transferase (GST) pull-down in vitro assay was performed with lysates of HeLa S3 cells overexpressing the HA-Flag-tagged either wild-type full-length HBc (HF-HBc WT) or its Y132A mutant (HF-HBc Y132A) that forms dimers but is unable to assemble into capsids[35] (Fig. 3a; Supporting Information Fig. 1). GST protein was used as a negative control. The expression of HF-HBc WT and HF-HBc Y132A in the cell lysates was verified by Western blot using the anti-HA antibody (Fig. 3a, lane 5). We also confirmed, using native Western blot, the presence of capsid in the HeLaS3 HBc WT cell lysate and its absence in the HeLaS3 HBc Y132A cell lysate (Fig. 3b).
The construct PTPN3-PDZ tagged with a N-terminal GST (GST-PTPN3-PDZ) was expressed and purified as previously described[25] without TEV cleavage. The additional TEV cleavage step of GST-PTPN3-PDZ provides the GST alone. […]
After lysate binding, the glutathione-agarose beads were washed four times with binding buffer, pelleted, and resuspended in SDS-PAGE sample buffer for Western blotting. After boiling, the bound proteins were analyzed using 12% SDS-PAGE followed by Western blotting using HRP-conjugated HA Epitope Tag monoclonal antibody (26183-HRP, THERMOFISHER) diluted to 1:2000. […]

The target in experiment [4] is T1, PDZ domain of PTPN3 (PTPN3-PDZ), residues 489-597 (human, UniProt P26045 489-597).
T1 construct: not shown: GST, N-terminal, cleaved
T1 sequence (looked up): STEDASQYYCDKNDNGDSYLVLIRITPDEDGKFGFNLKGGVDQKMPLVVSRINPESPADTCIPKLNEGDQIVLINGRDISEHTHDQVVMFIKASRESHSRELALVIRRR
The experiment is described as follows: crystal structure; co-crystal of PTPN3-PDZ with PBM-HBc peptide added in excess; 20 mM HEPES pH 8, 150 mM NaCl, 0.5 mM TCEP; reservoir 20% PEG 3350, 0.2 M NaBr pH 7; 1.86 Å. As to conditions: both partners purified.

Results on six molecules are retold here after publication PMC7806630, “Molecular basis of the interaction of the human tyrosine phosphatase PTPN3 with the hepatitis B virus core protein” (Scientific Reports, 2021).

With -RRRRSQSRESQC [HBc PBM], the “BI (binding intensity)” value is 0,43 in the experiment on SYNJ2BP; 0,24 in the experiment on SIPA1L2; 0,35 in the experiment on DLG4_2_; 0,38 with DLG2_2; 0,34 in the experiment with DLG1_1; 0,25 with SNTA1. In addition, the “BI (binding intensity)” value was 0,51 with MAGI2; 0,34 in the experiment with DLG1_3; 0,54 in the experiment on SNTB1; 0,31 with GIPC2; 0,47 with STXB4; 0,43 with DLG4_1. Also, the “BI (binding intensity)” value with SNTB2 is 0,38; in the experiment with GIPC1, 0,85; in the experiment on PTPN4, 0,58; with MAST2, 0,21; in the experiment with MAGI1 it was 0,49; with MAGI3, 0,78. The “BI (binding intensity)” value with SNX27 was 0,39; with DLG2_1, 0,35; in the experiment on DLG3_2, 0,36; in the experiment on InaDl, 0,29; in the experiment with DLG1_2, 0,40; in the experiment on DLG4_3, 0,53. In addition, the entries for the “BI (binding intensity)” value in the experiment on SCRIB, with MPDZ and with TJP2 were 0,23, 0,46 and 0,27, respectively. In addition, the “number of potential HBc binders containing PDZ domains” value in experiment [1] was determined as 28.
On to “ETQL [PBM-16E6, PBM of the HPV16 E6 protein, reference compound]”, for which the KD result at PTPN3-PDZ [2] is on record as “a few tens of”.
Consider “NH2RRRRSQSRESQCCOOH [PBM-HBc, PBM-HBc peptide (NH2…OOH)]”, for which, on PTPN3-PDZ [2], the KD result was “a few tens of”.

B1: full-length HBc: full-length HBc expressed in Escherichia coli mainly assembles into capsid-like particles (CLPs) (protein)
chain: MDIDPYKEFGATVELLSFLPSDFFPSVRDLLDTASALYREALESPEHCSPHHTALRQAILCWGELMTLATWVGVNLEDPASRDLVVSYVNTNMGLKFRQLLWFHISCLTFGRETVIEYLVSFGVWIRTPPAYRPPNAPILSTLPETTVVRRRGRSPRRRTPSPRRRRSQSPRRRRSQSRESQC
With B1, the “effect on TROSY resonances of PTPN3-PDZ” value in the experiment with PTPN3-PDZ [3] is “nearly all of the TROSY resonances observed with free PTPN3-PDZ had disappeared”.

B2: HBc WT: HA-Flag-tagged wild-type full-length HBc (protein)
chain: B1 chain
B2: the “binding in GST pull-down” value with GST-PTPN3-PDZ is given as “detected only in interaction with GST-PTPN3-PDZ”.

B3: PBM-HBc peptide (C-terminal PDZ-binding motif of the hepatitis B virus core protein) (peptide)
peptide: RRRRSQSRESQC
notes: also called PBM of HBc; source: synthetic peptide (Fmoc solid phase, PROTEOGENIX)
Turning to B3, the binding result in experiment [4] is listed as “binds”.
